# “And” between values parts separate entries of the source, which are not always exact repeats. Equal values may be shown once. Read-outs that look alike come from different tables or passages of the source.
# Key:
# PfENT1 [1] = biological target: T1, PfENT1 (Plasmodium falciparum, UniProt Q8IDM6); test: ITC binding to PfENT1; conditions: for Kd: 25 °C, 25 mM MES pH 6.0, 150 mM NaCl, 0.05% DDM
# T1 construct: 10xHis (N); made in house; host or cells: Sf9 insect cells (baculovirus)
# Description: (§1) All the constructs were subcloned and inserted into a modified pFastBac with an N-terminal 10 × His tag. The baculovirus was generated in DH10Bac for recombinant protein expression. After 72 h of infection, Sf9 insect cells were harvested. For structural determination of the PfENT1 protein, Sf9 cells were solubilized in buffer containing 25 mM MES (pH 6.0), 150 mM NaCl, 2% (w/v) n-dodecyl-β-D-maltopyranoside (DDM), and protease inhibitor cocktail (0.8 μM aprotinin, 2 μM pepstatin, and 5 μg/ml leupeptin) at 4 °C for 2 h. After centrifugation at 18,000 rpm for 45 min at 4 °C, the detergent-soluble supernatant was collected via centrifugation at 4 °C for 60 min and incubated with Ni-NTA resin (QIAGEN) at 4 °C for 20 min. The resin was further washed with 25 mM MES pH 6.0, 150 mM NaCl, 10 mM imidazole, and 0.05% (w/v) DDM and eluted with buffer containing 25 mM MES pH 6.0, 150 mM NaCl, 300 mM imidazole, and 0.05% (w/v) DDM. The protein was further purified via size-exclusion chromatography (Superdex 200 Increase 10/300; GE Healthcare) in buffer containing 25 mM MES (pH 6.0), 150 mM NaCl, and 0.05% (w/v) DDM. The peak fractions were pooled and concentrated to 10∼50 μM for the nucleoside-binding assay. The protein purification of the bacterial nucleoside transporter NupG was performed as described in previous studies ([35]).
# (§2) […] binding to ENTs was measured at 25 °C via a MicroCal PEAQ-ITC. The purified ENT protein was concentrated to 25 to 50 μM for ITC experiments. The nucleoside was diluted to 5 mM via the same buffer employed for protein purification, which consisted of 25 mM MES (pH 6.0), 150 mM NaCl, and 0.05% DDM. The inhibitor was diluted to 250 μM via the same buffer employed for protein purification, which consisted of 25 mM MES (pH 6.0), 150 mM NaCl, and 0.05% DDM. All the titrations were repeated three times.
# PvENT1 = biological target: T2, PvENT1 (Plasmodium vivax, UniProt A5K8B0); test: ITC binding to PvENT1; conditions: for Kd: 25 °C, 25 mM MES pH 6.0, 150 mM NaCl, 0.05% DDM
# T2 construct: 10xHis (N); made in house; host or cells: Sf9 insect cells (baculovirus)
# T2 sequence (A5K8B0 1-416): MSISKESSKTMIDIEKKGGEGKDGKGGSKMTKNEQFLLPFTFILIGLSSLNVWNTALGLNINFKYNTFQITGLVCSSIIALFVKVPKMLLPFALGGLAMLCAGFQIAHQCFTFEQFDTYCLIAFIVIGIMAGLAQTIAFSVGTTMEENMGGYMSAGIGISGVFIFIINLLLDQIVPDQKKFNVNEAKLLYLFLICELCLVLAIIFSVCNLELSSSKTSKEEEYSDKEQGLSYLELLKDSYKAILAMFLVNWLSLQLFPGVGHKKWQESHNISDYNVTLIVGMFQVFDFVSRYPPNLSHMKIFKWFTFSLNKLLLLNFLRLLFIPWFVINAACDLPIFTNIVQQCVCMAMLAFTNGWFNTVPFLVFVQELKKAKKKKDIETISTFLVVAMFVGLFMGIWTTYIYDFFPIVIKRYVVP
# Description: as §1, §2
# PbENT1 = biological target: T3, PbENT1 (Plasmodium berghei, UniProt A0A509AYF4); test: ITC binding to PbENT1; conditions: for Kd: 25 °C, 25 mM MES pH 6.0, 150 mM NaCl, 0.05% DDM
# T3 construct: 10xHis (N); made in house; host or cells: Sf9 insect cells (baculovirus)
# T3 sequence (A0A509AYF4 1-412): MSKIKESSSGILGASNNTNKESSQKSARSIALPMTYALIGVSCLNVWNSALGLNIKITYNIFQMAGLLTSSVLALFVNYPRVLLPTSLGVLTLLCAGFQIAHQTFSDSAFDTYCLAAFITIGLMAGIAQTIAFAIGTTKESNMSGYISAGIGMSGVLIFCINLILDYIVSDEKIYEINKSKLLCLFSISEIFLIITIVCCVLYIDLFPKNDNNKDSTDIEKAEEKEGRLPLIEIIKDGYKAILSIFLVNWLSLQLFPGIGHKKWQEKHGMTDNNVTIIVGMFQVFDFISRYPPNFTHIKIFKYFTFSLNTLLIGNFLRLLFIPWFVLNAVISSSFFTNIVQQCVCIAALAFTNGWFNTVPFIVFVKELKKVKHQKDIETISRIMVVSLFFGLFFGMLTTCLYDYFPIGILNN
# Description: as §1, §2
# PfENT1I70M = biological target: T4, PfENT1I70M (Plasmodium falciparum, UniProt Q8IDM6, I70M); test: ITC binding to PfENT1I70M
# T4 construct: 10xHis (N); made in house; host or cells: Sf9 insect cells (baculovirus)
# T4 sequence (Q8IDM6 1-422 I70M): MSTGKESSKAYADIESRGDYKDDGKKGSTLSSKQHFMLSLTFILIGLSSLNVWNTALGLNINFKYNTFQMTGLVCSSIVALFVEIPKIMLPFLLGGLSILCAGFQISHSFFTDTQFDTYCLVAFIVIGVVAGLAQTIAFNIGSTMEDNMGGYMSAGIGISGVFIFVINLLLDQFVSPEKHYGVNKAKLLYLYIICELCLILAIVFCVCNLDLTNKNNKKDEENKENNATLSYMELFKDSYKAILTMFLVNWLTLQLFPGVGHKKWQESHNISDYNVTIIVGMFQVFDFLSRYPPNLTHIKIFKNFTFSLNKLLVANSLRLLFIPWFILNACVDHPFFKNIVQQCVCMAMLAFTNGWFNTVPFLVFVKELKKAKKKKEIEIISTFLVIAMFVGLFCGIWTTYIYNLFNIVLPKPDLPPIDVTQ
# Description: as §1, with “The protein purification of the bacterial nucleoside transporter NupG was performed as described in previous studies ([35]).” left out
# (§3) […] binding to ENTs was measured at 25 °C via a MicroCal PEAQ-ITC. […]
# PfENT1S49C = biological target: T5, PfENT1S49C (Plasmodium falciparum, UniProt Q8IDM6, S49C); test: ITC binding to PfENT1S49C
# T5 construct: 10xHis (N); made in house; host or cells: Sf9 insect cells (baculovirus)
# Description: as §1, with “The protein purification of the bacterial nucleoside transporter NupG was performed as described in previous studies ([35]).” left out
# as §3
# PbENT1M64I = biological target: T6, PbENT1M64I (Plasmodium berghei, UniProt A0A509AYF4, M64I); test: ITC binding to PbENT1M64I
# T6 construct: 10xHis (N); made in house; host or cells: Sf9 insect cells (baculovirus)
# Description: as §1, with “The protein purification of the bacterial nucleoside transporter NupG was performed as described in previous studies ([35]).” left out
# as §3
# PbENT1C43S = biological target: T7, PbENT1C43S (Plasmodium berghei, UniProt A0A509AYF4, C43S); test: ITC binding to PbENT1C43S
# T7 construct: 10xHis (N); made in house; host or cells: Sf9 insect cells (baculovirus)
# Description: as §1, §2
# PfENT1 [2] = biological target: T1, PfENT1; set-up: method as in PMID 36977719; conditions: competition assay; cited from earlier work
# [3] = read-out: Kd (binding affinity for PvENT1)
# [4] = read-out: Kd (binding affinity for PbENT1)
# [5] = read-out: Kd (binding affinity for PfENT1)
# T7 sequence (A0A509AYF4 whole entry C43S): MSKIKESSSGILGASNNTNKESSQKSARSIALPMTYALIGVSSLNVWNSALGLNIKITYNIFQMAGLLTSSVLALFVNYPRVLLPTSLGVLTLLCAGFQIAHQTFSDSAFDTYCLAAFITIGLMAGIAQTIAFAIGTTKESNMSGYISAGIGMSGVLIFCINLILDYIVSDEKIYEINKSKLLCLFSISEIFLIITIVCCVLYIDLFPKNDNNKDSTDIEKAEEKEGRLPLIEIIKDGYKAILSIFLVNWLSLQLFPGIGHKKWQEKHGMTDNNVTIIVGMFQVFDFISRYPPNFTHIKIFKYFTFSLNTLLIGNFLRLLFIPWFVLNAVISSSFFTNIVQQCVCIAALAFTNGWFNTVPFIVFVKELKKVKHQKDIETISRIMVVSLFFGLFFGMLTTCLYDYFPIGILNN
# T1 sequence (Q8IDM6 whole entry): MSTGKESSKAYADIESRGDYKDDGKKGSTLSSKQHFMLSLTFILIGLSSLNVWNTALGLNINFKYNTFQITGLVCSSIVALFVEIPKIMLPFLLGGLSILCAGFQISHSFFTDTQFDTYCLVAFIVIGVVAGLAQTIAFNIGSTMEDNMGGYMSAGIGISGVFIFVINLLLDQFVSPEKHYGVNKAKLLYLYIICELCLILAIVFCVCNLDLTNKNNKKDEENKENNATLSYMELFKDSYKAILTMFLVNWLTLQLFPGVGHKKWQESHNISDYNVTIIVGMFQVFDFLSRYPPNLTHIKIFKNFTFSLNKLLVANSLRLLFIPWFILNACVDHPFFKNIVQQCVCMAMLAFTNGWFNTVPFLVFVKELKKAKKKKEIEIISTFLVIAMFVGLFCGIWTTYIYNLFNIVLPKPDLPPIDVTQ
# T6 sequence (A0A509AYF4 whole entry M64I): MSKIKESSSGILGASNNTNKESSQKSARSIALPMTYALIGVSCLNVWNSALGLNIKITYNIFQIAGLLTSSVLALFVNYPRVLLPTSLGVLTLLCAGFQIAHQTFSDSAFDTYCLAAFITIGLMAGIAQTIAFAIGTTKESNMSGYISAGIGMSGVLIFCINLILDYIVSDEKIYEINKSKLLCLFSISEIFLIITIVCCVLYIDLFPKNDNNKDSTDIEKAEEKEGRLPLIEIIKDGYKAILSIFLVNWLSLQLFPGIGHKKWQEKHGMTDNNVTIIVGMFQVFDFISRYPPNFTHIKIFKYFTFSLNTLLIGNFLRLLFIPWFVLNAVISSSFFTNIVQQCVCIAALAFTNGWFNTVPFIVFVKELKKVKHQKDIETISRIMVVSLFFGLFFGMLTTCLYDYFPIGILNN
# T5 sequence (Q8IDM6 whole entry S49C): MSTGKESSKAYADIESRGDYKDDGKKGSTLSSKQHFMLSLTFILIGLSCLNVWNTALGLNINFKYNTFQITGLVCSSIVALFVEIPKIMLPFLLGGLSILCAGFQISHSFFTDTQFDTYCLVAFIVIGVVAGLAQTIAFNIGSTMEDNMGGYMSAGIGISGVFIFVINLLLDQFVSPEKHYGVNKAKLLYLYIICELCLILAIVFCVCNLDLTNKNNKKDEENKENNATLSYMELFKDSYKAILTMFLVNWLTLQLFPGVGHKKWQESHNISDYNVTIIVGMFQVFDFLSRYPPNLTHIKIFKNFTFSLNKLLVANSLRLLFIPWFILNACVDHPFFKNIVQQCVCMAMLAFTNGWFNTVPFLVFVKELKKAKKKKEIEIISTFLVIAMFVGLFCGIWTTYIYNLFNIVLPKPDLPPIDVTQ
smiles,measurement,setting,value
Nc1nc2c(ncn2[C@@H]2O[C@H](CO)[C@@H](O)[C@H]2O)c(=O)[nH]1 [guanosine],Kd,PfENT1 [1]; Kd (binding affinity for PfENT1),~179 µM
same,Kd,PvENT1; [3],~49.3 µM and 49.3 µM and 50.5 µM and 46.3 µM
same,Kd,PbENT1; [4],15.6 µM and 8.69 µM and 11.3 µM
O=c1[nH]cnc2c1ncn2[C@@H]1O[C@H](CO)[C@@H](O)[C@H]1O [inosine],thermodynamic pattern of binding to PfENT1,PfENT1 [1],entropy-driven
same,Kd,PfENT1 [1]; [5],77.3 µM
same,ΔH of binding to PfENT1,PfENT1 [1]; endothermic reaction,> 0
same,thermodynamic pattern of binding to PvENT1,PvENT1,enthalpy-entropy compensation
same,ΔH of binding to PvENT1,PvENT1; exothermic reaction,< 0
same,thermodynamic pattern of binding to PbENT1,PbENT1,enthalpy-driven
same,ΔH of binding to PbENT1,PbENT1; exothermic reaction,< 0
same,affinity for PfENT1I70M (in words),PfENT1I70M; compared with PfENT1,comparable affinity
same,binding to PfENT1S49C (in words),PfENT1S49C,complete abolishment
same,binding affinity of PbENT1M64I relative to WT PbENT1,PbENT1M64I,fivefold lower
same,binding affinity of PbENT1C43S relative to WT PbENT1,PbENT1C43S,fivefold lower
OC[C@H]1O[C@@H](n2cnc3c(O)ncnc32)[C@H](O)[C@@H]1O [inosine],Kd,PfENT1 [1]; [5],~64.2 µM
same,Kd,PvENT1; [3],~146 µM and 146 µM and 161 µM and 173 µM
same,Kd,PbENT1; [4],13.6 µM and 6.11 µM and 13.5 µM
same,Kd,"PfENT1I70M; 25 °C, pH 6.0",58.3 µM and 78.5 µM and 65.3 µM
same,Kd,"PbENT1M64I; Kd (binding to PbENT1M64I), 25 °C, pH 6.0",61.6 µM and 53.5 µM and 58.9 µM
same,Kd,"PbENT1C43S; Kd (binding to PbENT1C43S), 25 °C, pH 6.0",51.4 µM and 55.9 µM and 58.4 µM
Cc1cn([C@H]2C[C@H](O)[C@@H](CO)O2)c(=O)[nH]c1=O [thymidine],binding affinity for PfENT1 (in words),PfENT1 [1]; PfENT1 WT,undetectable
same,binding affinity for PbENT1 (in words),PbENT1,weak
same,inhibition of the inosine transport activity of PfENT1,PfENT1 [2],effectively inhibited
O=c1ccn([C@@H]2O[C@H](CO)[C@@H](O)[C@H]2O)c(=O)[nH]1 [uridine],binding affinity for PbENT1 (in words),PbENT1,No binding affinity was detected
O=c1[nH]c(=O)c2ncn([C@@H]3O[C@H](CO)[C@@H](O)[C@H]3O)c2[nH]1 [xanthosine],Kd,PvENT1; Kd (binding affinity for PvENT1),114 µM and 122 µM and 107 µM
same,Kd,PbENT1; Kd (binding affinity for PbENT1),88.2 µM and 92.8 µM and 95.5 µM

# — article PMC11787452, “Substrate and inhibitor specificity of Plasmodium nucleoside transporters ENT1 orthologs” (The Journal of Biological Chemistry, 2024)
